# Source: US20200062719A1, “Application of Imidazopyridine Derivatives in Regenerative Medicine” (University of Heidelberg, priority 2018, published 2020)
# Columns and labels:
# [1] = system: H3K4Me3; test: Global H3K4Me3 level in fibroblasts (immunocytochemistry, immunoblotting); type: cell-based, human
# Excerpt: The inventors investigated the transfection efficiency in HF1 and HF4 using the same episomal vector carrying cytomegalovirus (CMV)-driven GFP. The inventors could not observe a significant difference between two cell lines, as determined by FACS analysis. […] To study the epigenetic effects of O4I3 and its relevance to reprogramming, the inventors focused on two histone modifications at the promoter of OCT4, namely, H3K4Me3, known to be related to gene activation, and H3K27Me3, which indicates gene repression. […] The level of H3K27Me3 at the OCT4 promoter was minimally affected in our experiments (FIG. 17C). […] Immunoblotting confirmed a dose- and time-dependent increase of global H3K4Me3 expression in fibroblast, whereas H3K27Me3 remained mostly unaffected (FIG. 17E). In an in vitro methylation assay, O4I3 protected methylated H3K4 with an […] value of 20 nM (FIG. 17F). Trimethylation of H3K9 has been reported to block reprogramming by recruiting heterochromatin protein 1 to form heterochromatin at the core of pluripotency loci, which interferes with the hypermethylation of H3K4. […]
# Fibroblasts were treated with O4I3 0.5 μM for 2 days in the presence/absence of reprogramming transcription factors. […] The signal intensity was analyzed using ImageJ software as single cell level randomly selected from at least three independent experiments.
# [2] = system: promoter of Oct4; test: ChIP-qPCR of H3K4Me3 at the promoter of Oct4 in reprogramming-resistant fibroblasts; type: cell-based, human; conditions: reprogramming-resistant patient fibroblasts
# Excerpt: The importance of active tri-methylation of histone H3 lysine 4 (H3K4Me3) in promoting transcription factors binding to an ‘open’ chromatin state and thereby initiation of reprogramming is known in the art. In good agreement, the inventors found the abundance of H3K4Me3 in O4I3-treated reprogramming-resistant fibroblasts by immunostaining (FIG. 14) and immunoblotting (FIG. 5B). To directly study if O4I3 facilitated the binding of H3K4Me3 to the promoter of Oct4, a CHIP-qPCR experiment was performed.
# In reprogramming-resistant HF4, the level of H3K4Me3 at the promoter of OCT4 was increased by OSKM, but was still nearly 1,000-fold lower than that in PSCs (FIG. 19A). […] However, a clear influence on H3K4 methylation was not observed in the presence of KDM5B-, KDM5C-, or KDM5D-siRNA (FIG. 19A). […] Indeed, the reprogramming efficiency is negatively correlated with the expression of KDM5A in 11 HFs (FIG. 19D). Moreover, KDM5A siRNA increased the global level of H3K4Me3 in a dose-dependent manner (FIG. 19E). Of note, the alternation in the occupation of H3K27Me3 at the promoter of OCT4 was more refractory to chemical inhibition or genetic repression of KDM5s in the inventors' experiments (FIG. 19B). […]
# [3] = system: human fibroblasts; test: qRT-PCR of reprogramming associated genes in human fibroblasts; type: cell-based; conditions: human fibroblasts, O4I3 0.5 μM
# Description: Analyzing the effects of O4I3 on human fibroblasts, the activation of reprogramming associated genes, including an about 10-fold induction of Oct4, Nanog and Lin28, and an about 100-fold increase of Sox2 and E-Cadherin mRNA levels was detected. In particular, expression of several essential genes for reprogramming is equal to those in pluripotent stem cells, such as Esrrb, FGF2 and Sall4 (FIG. 12).
# Quantitative reverse-transcription real-time-PCR was performed using a Light Cycler 96 (Roche, Germany) following the manufacturer's protocol. Briefly, total RNA was isolated from cells using TRIzol (Qiagen, Germany) or NucleoSpin®RNA Plus (Macherey-Nagel, Germany). The same amount of RNA was used to reverse-transcriptional synthesize cDNA by using random primers ProtoScript® First Strand cDNA Synthesis Kit (NEB, Germany). qPCR was performed using the SYBR Green PCR master mix (qPCRBIO SyGreen Mix Lo-Rox, Nippon Genetics, Germany) and the primer pairs indicated below (MWG, Eurofins, Germany). Actin was used as an endogenous control. Data were normalized to the value of untreated cells showing the mean±SD of quadruplicates and are representative of at least three independent experiments.
# [4] = system: Oct4; test: Luciferase reporter assay in NCCIT-Oct4 cells; type: cell-based, human; conditions: O4I3 1 nM, a 10,000-fold lower concentration; both reporter cell lines
# [5] = system: hiPSCs; test: Maintenance of hiPSCs, FACS of Tra-1-81 and Oct4 over passages; type: cell-based, human; conditions: 50 nM O4I3, FACS
# Description: Since O4I3 induced sustainable expression of Oct4 and Nanog, the inventors questioned if it supports iPSC self-renewal in single cell expansion. Therefore, the viability of iPSCs, after replating Accutase®-dissociated single iPSCs, was tested in the presence or absence of O4I3. Rocki (Y-27632) was used for the first 24 h to increase iPSCs survival. A nearly 300% higher viability in cells treated with O4I3 (1 nM) was observed. Using 50 nM of O4I3 even 400% increase was observed (FIG. 2A). FACS analysis confirmed homologous expression of iPSCs markers, Tra-1-81 and Oct4, for at least 30 passages (FIG. 2B).
# iPSCs were seeded in a 6-well plate coated with Geltrex. Cells were harvested, fixed and permeabilized (if appropriately) as known in the art (Cheng et al, Mol Oncol. 2016 June; 10(6):806-24). Fixed cells were incubated with the primary antibody for 24 h at 4° C. and with the secondary antibody for 1 h at room temperature.
# [6] = system: hiPSCs; test: Differentiation markers in hiPSCs at high concentration; type: cell-based, human; conditions: 10 μM
compound,measurement,setting,value
"Cc1ccc(-c2cn3cc(C)ccc3n2)cc1 [O4I3, 6-methyl-2-(p-tolyl)imidazo[1,2-a]pyridine]",global level of H3K4Me3,[1],increase of H3K4Me3
same,enrichment of H3K4Me3 at the promoter of Oct4,[2],increased enrichment
same,increase of E-Cadherin mRNA levels,[3],about 100 fold
same,increase of Sox2 mRNA levels,[3],about 100 fold
same,induction of Lin28 mRNA,[3],about 10 fold
same,induction of Nanog mRNA,[3],about 10 fold
same,induction of Oct4 mRNA,[3],about 10 fold
same,induction versus zolpidem at 10 μM,[4],comparable induction
same,"homologous expression of Tra-1-81 and Oct4, number of passages",[5],at least 30 passages
same,differentiation markers T and Gata4,[6],induction of those markers
